Read-outs that look alike come from different tables or passages of the source.
Legend:
[1] = test system: HCT-116 colorectal cancer cells; assay: Cellular uptake and metabolism study in HCT-116 (HPLC); assay type: cell-based, human; conditions: HCT-116, 50 μM
Method: The cell pellets were resuspended in 1 mL water: acetonitrile: formic acid (95:5:0.2, v/v/v) and disrupted by an ultrasonic cell disruptor (Soniprep 150, MSE Ltd., London, UK) for 1 min on ice. One hundred microliters of the filtered supernatant from centrifuge (4 °C, 15,000× g) were analyzed by HPLC. Three injections were performed for each sample. […] The HPLC method used in this study is described in Supplementary HPLC method C.

[2] = test system: [18F]D4-FCH uptake in C4-2B cells; assay: [18F]D4-FCH uptake in vitro study, C4-2B; assay type: cell-based; conditions: Homo sapiens, 1 μM, read-out: inhibition of [18F]D4-FCH uptake (mean of CK14, CK145 and CK146)
Method: HCT-116 and C4-2B cells were seeded at a density of 5 × 10^5 cells per well into 6-well plates and incubated overnight. Cells were treated with 1 or 10 µM CHKA inhibitors (CK14, CK145, CK146 and CK147) for 1 h and pulsed with [^18F]D4-FCH (740 kBq) in presence of inhibitors in 1 mL for an additional hour at 37 °C. Cells were washed with ice-cold PBS three times and lysed in 1 mL RIPA buffer. The radioactivity of 800 µL lysate from each well was counted on a gamma counter (Perkin Elmer, Beaconsfield, UK) and normalized to protein content as determined by BCA assay.

HCT116 xenografts = conditions: cited from earlier work
A549 = conditions: cited from earlier work
HCT-116 = conditions: cited from earlier work
8 cancer cell lines = test system: 8 cancer cell lines; design: method as in PMID 27206796; conditions: cited from earlier work
[3] = test system: Δ49N CHKA2 (recombinant CHKA2); conditions: read-out: IC50 Δ49N CHKA2; cited from earlier work
[4] = test system: MCF-10A and ST-T1B (2 normal cell lines); conditions: read-out: GI50 range of 2 normal cell lines (MCF-10A and ST-T1B); cited from earlier work

in vitro conversion to CK146 or intermediates (in words) ([1]; 1 h and 2 h, HPLC)	cellular uptake relative to CK145 ([1]; 1 h and 2 h post-incubation)	SMILES	inhibition at 1 µM [2] [%]	in vivo anti-tumor activity (in words) (HCT116 xenografts)	body weight effect (in words) (HCT116 xenografts; in vivo)	GI50 (A549) [nM]	GI50 (HCT-116) [nM]	GI50 (8 cancer cell lines; read-out: GI50 range of 8 cancer cell lines) [nM]	GI50 (8 cancer cell lines; read-out: mean GI50 of 8 cancer cell lines) [nM]	IC50 [3] [nM]	GI50 [4] [nM]
not observed	–	CC(=O)NCCCCC(NC(=O)OC(C)(C)C)C(=O)N1CCN(c2cc[n+](CCCCCCCCCCCCCC[n+]3ccc(N(C)C)cc3)cc2)CC1 (stereo not drawn) [CK145]	46 ± 1	–	–	–	–	–	–	–	–
–	–	CN(C)c1cc[n+](CCCCCCCCCCCCCC[n+]2ccc(N3CCNCC3)cc2)cc1 [CK146]	46 ± 1	–	–	–	–	–	–	–	–
–	approximately two-fold	CN(C)c1cc[n+](CCCCCCCCCCCC[n+]2ccc(N(C)C)cc2)cc1 [ICL-CCIC-0019]	–	potent in vivo anti-tumor activity	slight reduction in body weight	380	640	380 to 2700	1090	270 ± 60	30000 to 120000

Reference: publication PMC8309005, “Novel Non-Congeneric Derivatives of the Choline Kinase Alpha Inhibitor ICL-CCIC-0019” (Pharmaceutics, 2021)
